Assay results published in ChEMBL document CHEMBL1201862, “PubChem BioAssay data set” (2004).
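All cell lines were grown in 96-well plates and treated with compound for 48 hours. GI50: concentration for 50% inhibition of growth.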 Activity calls are given as the source filed them. No stated cut-off is given here; in the data, active = GI50 up to about 1.1 µM and inactive = higher.

Columns and labels:
Test in all cases: NCI tumour cell line growth inhibition, 48 h
A549 = system: A549
CAKI-1 = system: CAKI-1
COLO 205 = system: COLO 205
HL-60 = system: HL-60
HOP-62 = system: HOP-62
MCF7 = system: MCF7
MDA-MB-231 = system: MDA-MB-231
MDA-N = system: MDA-N
MOLT-4 = system: MOLT-4
NCI-H226 = system: NCI-H226
NCI-H460 = system: NCI-H460
NCI-H522 = system: NCI-H522
NCI/ADR-RES = system: NCI/ADR-RES
OVCAR-3 = system: OVCAR-3
OVCAR-8 = system: OVCAR-8
SK-MEL-28 = system: SK-MEL-28
SK-MEL-5 = system: SK-MEL-5
SN12C = system: SN12C
TK-10 = system: TK-10
A498 = system: A498

Structure (SMILES)	GI50 (A549)	GI50 (CAKI-1)	GI50 (COLO 205)	GI50 (HL-60)	GI50 (HOP-62)	GI50 (MCF7)	GI50 (MDA-MB-231)	GI50 (MDA-N)	GI50 (MOLT-4)	GI50 (NCI-H226)	GI50 (NCI-H460)	GI50 (NCI-H522)	GI50 (NCI/ADR-RES)	GI50 (OVCAR-3)	GI50 (OVCAR-8)	GI50 (SK-MEL-28)	GI50 (SK-MEL-5)	GI50 (SN12C)	GI50 (TK-10)	GI50 (A498)
O=C1/C(=C/c2ccc(Cl)cc2)Oc2cc(O)ccc21 [6-HYDROXY-4'-CHLORO AURONE]	30.1 µM (inactive)	> 10 µM (inactive)	> 100 µM (inactive)	18.1 µM (inactive)	32.7 µM (inactive)	34 µM (inactive)	34.6 µM (inactive)	30.2 µM (inactive)	19.6 µM (inactive)	28.2 µM (inactive)	25.1 µM (inactive)	23.8 µM (inactive)	24.9 µM (inactive)	34.7 µM (inactive)	31.9 µM (inactive)	59.6 µM (inactive)	23.4 µM (inactive)	29.8 µM (inactive)	30.5 µM (inactive)	
CC(=O)C1(O)Cc2c(O)c3c(c(O)c2C(OC2CC(N)C(O)C(C)O2)C1)C(=O)c1ccccc1C3=O (stereo unspecified)	0.0248 µM (active)	0.00836 µM (active)	0.0796 µM (active)	0.00206 µM (active)	0.0141 µM (active)	0.00458 µM (active)	0.252 µM (active)	0.112 µM (active)	0.01 µM (active)	0.0163 µM (active)	0.000569 µM (active)	0.015 µM (active)	0.297 µM (active)	0.178 µM (active)	0.0327 µM (active)		0.0241 µM (active)	0.0207 µM (active)	0.053 µM (active)	0.0115 µM (active)
COc1ccccc1C[C@@H]1OC2(C=CC(=O)C=C2)O[C@H]1Cc1ccccc1OC	21.7 µM (inactive)	10.3 µM (inactive)	8.11 µM (inactive)	7.43 µM (inactive)	7.4 µM (inactive)	3.96 µM (inactive)	13.8 µM (inactive)	6 µM (inactive)	2.04 µM (inactive)	8.47 µM (inactive)	23 µM (inactive)		8.38 µM (inactive)	8.09 µM (inactive)	1.27 µM (inactive)	8.81 µM (inactive)	8.99 µM (inactive)	9.64 µM (inactive)	9.06 µM (inactive)	16.9 µM (inactive)
COc1ccc2c(-c3ccc(O)cc3)c(Oc3ccc(Cl)cc3)c(=O)oc2c1	4.7 µM (inactive)	2.81 µM (inactive)	6.08 µM (inactive)		12.9 µM (inactive)	3.63 µM (inactive)	5.13 µM (inactive)	6.34 µM (inactive)	3.72 µM (inactive)	> 20.6 µM (inactive)	5.2 µM (inactive)	2.55 µM (inactive)	> 19.8 µM (inactive)	3.57 µM (inactive)	> 34 µM (inactive)	7.71 µM (inactive)	3.48 µM (inactive)	4.6 µM (inactive)	5.48 µM (inactive)	6.79 µM (inactive)
CC1(C)CC(O)CC(C)(C)N1O [TEMPOL HYDROXYLAMINE]	> 100 µM (inactive)	> 100 µM (inactive)	> 100 µM (inactive)		> 100 µM (inactive)	> 100 µM (inactive)	> 100 µM (inactive)	> 100 µM (inactive)	> 100 µM (inactive)		> 100 µM (inactive)		> 100 µM (inactive)	68.1 µM (inactive)	> 100 µM (inactive)	> 100 µM (inactive)	> 100 µM (inactive)	> 100 µM (inactive)	> 100 µM (inactive)	> 100 µM (inactive)
c1ccc(-c2c(-c3[nH]c4ccccc4c3-c3ccccc3)[nH]c3ccccc23)cc1	3.5 µM (inactive)	3.33 µM (inactive)	1.91 µM (inactive)	3.06 µM (inactive)	2.55 µM (inactive)	3.33 µM (inactive)	3.4 µM (inactive)	2.74 µM (inactive)	3.35 µM (inactive)	11.6 µM (inactive)	2.95 µM (inactive)	3.18 µM (inactive)	3.72 µM (inactive)	2.3 µM (inactive)	4.29 µM (inactive)	11.4 µM (inactive)	4.16 µM (inactive)	1.91 µM (inactive)	10.6 µM (inactive)	
C=C1c2nc3ccccc3n2C=C(c2ccc(OC)cc2)N1c1ccc(OC)cc1	21.3 µM (inactive)	4.62 µM (inactive)	83.4 µM (inactive)	> 100 µM (inactive)		22 µM (inactive)	20 µM (inactive)	22.1 µM (inactive)	> 100 µM (inactive)	18.7 µM (inactive)	13.8 µM (inactive)	10.7 µM (inactive)	5.26 µM (inactive)	8.18 µM (inactive)	7.24 µM (inactive)		7.45 µM (inactive)	17.8 µM (inactive)	10.8 µM (inactive)	17.9 µM (inactive)
O=C1/C(=C/c2ccc(Cl)cc2)NC(=S)N1CN1CCOCC1	> 100 µM (inactive)		> 100 µM (inactive)		> 100 µM (inactive)	> 100 µM (inactive)	> 100 µM (inactive)	> 100 µM (inactive)	> 100 µM (inactive)	> 100 µM (inactive)			> 100 µM (inactive)	> 100 µM (inactive)	> 100 µM (inactive)	> 100 µM (inactive)	> 100 µM (inactive)	> 100 µM (inactive)	> 100 µM (inactive)	57.3 µM (inactive)
CC1(c2ccc(Cl)cc2)C=C(c2ccc(Cl)cc2)C(C#N)=C(C(C#N)C#N)N1.CNC (stereo unspecified)	19.2 µM (inactive)	16.9 µM (inactive)	14.5 µM (inactive)	13.1 µM (inactive)	16.5 µM (inactive)	16.6 µM (inactive)	24.9 µM (inactive)	17.3 µM (inactive)	13.6 µM (inactive)	19.8 µM (inactive)	20.4 µM (inactive)		17.9 µM (inactive)	8.75 µM (inactive)	14.5 µM (inactive)	24.1 µM (inactive)	14.2 µM (inactive)	18.3 µM (inactive)	18.7 µM (inactive)	17.9 µM (inactive)
O=C1c2cc(Cl)ccc2-n2c(noc2=O)C2CSCN12 (stereo unspecified)	> 100 µM (inactive)	> 100 µM (inactive)	> 100 µM (inactive)		> 100 µM (inactive)	> 100 µM (inactive)	> 100 µM (inactive)	> 100 µM (inactive)	> 100 µM (inactive)	> 100 µM (inactive)	> 100 µM (inactive)	> 100 µM (inactive)	> 100 µM (inactive)	> 100 µM (inactive)	> 100 µM (inactive)	> 100 µM (inactive)	> 100 µM (inactive)	> 100 µM (inactive)	> 100 µM (inactive)	> 100 µM (inactive)
Cc1nc(OCc2ccccc2)c2ncn(CCO)c2n1	> 100 µM (inactive)	> 100 µM (inactive)	> 100 µM (inactive)	> 100 µM (inactive)		> 100 µM (inactive)	> 100 µM (inactive)	> 100 µM (inactive)	> 100 µM (inactive)	> 100 µM (inactive)	> 100 µM (inactive)	> 100 µM (inactive)	> 100 µM (inactive)	> 100 µM (inactive)		> 100 µM (inactive)	> 100 µM (inactive)	> 100 µM (inactive)	> 100 µM (inactive)	> 100 µM (inactive)
COc1ccc(Nc2nc3ccccc3nc2C(=O)O)cc1	> 100 µM (inactive)	46.6 µM (inactive)	37.7 µM (inactive)	63.8 µM (inactive)	> 100 µM (inactive)	> 100 µM (inactive)	> 100 µM (inactive)	92.9 µM (inactive)	84.1 µM (inactive)		23.6 µM (inactive)	92 µM (inactive)	38.9 µM (inactive)	65.9 µM (inactive)	71.3 µM (inactive)	68.4 µM (inactive)	37.2 µM (inactive)	80.2 µM (inactive)	> 100 µM (inactive)	> 100 µM (inactive)
CC1(C)C(C#N)C1C1=C(N2CCOCC2)[C@]2(C)C(OC(=O)c3ccccc3)CC[C@@H]2C1 (stereo partly specified)	> 100 µM (inactive)	> 100 µM (inactive)	95.3 µM (inactive)		> 100 µM (inactive)	72.6 µM (inactive)	> 100 µM (inactive)	> 100 µM (inactive)	34.9 µM (inactive)	> 100 µM (inactive)	> 100 µM (inactive)	> 100 µM (inactive)	> 100 µM (inactive)	> 100 µM (inactive)	> 100 µM (inactive)	> 100 µM (inactive)	29.8 µM (inactive)	> 100 µM (inactive)	> 100 µM (inactive)	> 100 µM (inactive)
COc1cc(/C=C\C(=O)O)ccc1OCc1ccccc1	> 100 µM (inactive)	> 100 µM (inactive)	> 100 µM (inactive)	> 100 µM (inactive)	> 100 µM (inactive)	> 100 µM (inactive)	> 100 µM (inactive)	> 100 µM (inactive)	> 100 µM (inactive)		> 100 µM (inactive)	> 100 µM (inactive)	> 100 µM (inactive)	> 100 µM (inactive)	> 100 µM (inactive)	> 100 µM (inactive)	> 100 µM (inactive)	> 100 µM (inactive)	> 100 µM (inactive)	> 100 µM (inactive)
Oc1ccc(-c2c3c(nc4c2CCc2ccc(Br)cc2-4)-c2cc(Br)ccc2CC3)cc1	19.8 µM (inactive)	17.7 µM (inactive)	17.2 µM (inactive)		17.2 µM (inactive)	16.8 µM (inactive)	17.7 µM (inactive)	18.6 µM (inactive)		23.3 µM (inactive)	22.5 µM (inactive)	25.6 µM (inactive)	23 µM (inactive)	15.1 µM (inactive)		20.6 µM (inactive)	20.7 µM (inactive)	20 µM (inactive)	21.1 µM (inactive)	23.4 µM (inactive)
